# Patent US20110124690A1, “COMPOSITIONS AND METHODS FOR TREATING CANCER OR A NEUROTROPHIC DISORDER” (priority 2007, published 2011)
# Where two headings read alike, the source gives them in different places.
# Columns and labels:
# CCRF-CEM/Taxol cells = experiment: XTT microculture cytotoxicity assay, Taxol-resistant CCRF-CEM/Taxol cells; assay type: cell-based, human; details: Table 3A
# Description: (§2) CCRF-CEM human T-cell acute lymphoblastic leukemia cells and the corresponding vinblastine-resistant cells (CCRF-CEM/VBL100) were cultured at an initial density of 5×10^4 cells per milliliter. The cultured cells were then maintained in a 5% CO2-humidified atmosphere at 37° C. in RPMI medium 1640 (GIBCO/BRL) containing penicillin (100 units/mL), streptomycin (100 μg/mL, GIBCO/BRL), and 10% heat-inactivated fetal bovine serum. The cytotoxicity of each Panaxytriol Compound was measured using the 2,3-bis(2-methoxy-4-nitro-5-sulfophenyl)-5-[(phenylamino)carbonyl]-2H-tetrazolium hydroxide (XTT) microculture method as described in Scudiero et al., Cancer Res., 48:4827 (1988).
# [1] = tested on: CCRF-CEM/VBL (vinblastine-resistant) cells; experiment: XTT microculture cytotoxicity assay, vinblastine-resistant CCRF-CEM/VBL cells; assay type: cell-based, human; details: for IC50: Homo sapiens, CCRF-CEM
# Description: as §2
# [2] = tested on: CCRF-CEM human T-cell acute lymphoblastic leukemia cells; experiment: XTT microculture cytotoxicity assay, CCRF-CEM cells; assay type: cell-based
# Description: as §2
# [3] = tested on: human mammary carcinoma xenograft MX-1; experiment: Therapeutic effect in nude mice bearing MX-1 xenograft; assay type: in vivo; details: slow i.v. infusion; for Tumor growth at elevated dosage levels: elevated dosages
# Description: (§1) Nude mice having human mammary carcinoma xenograft MX-1 were treated with panaxytriol or Compound (A) at various dosages through the slow i.v. infusion protocol by Chou et al. (Chou, T. C., et al, Proc. Natl. Acad. Sci. U.S.A. 95: 15798 (1998)).
# [4] = Body weight of treated nude mice bearing MX-1 xenograft; assay type: in vivo; details: highest dosage levels (100 mg/kg)
# Description: as §1
# [5] = 72 h, Table 3, XTT assay, 72-hour inhibition, vinblastine-resistant cells
# [6] = 72 h, Table 3, XTT assay, 72-hour inhibition, read-out: IC50 (μM) CCRF-CEM
structure (smiles),measurement,setting,value
C=C[C@H](O)C#CC#CC[C@H]1OC(C)(C)O[C@@H]1CCCCCCC [Compound (D)],"Fold resistance, CCRF-CEM/Taxol vs parent CCRF-CEM (fold increase in IC50)",CCRF-CEM/Taxol cells,[2.17-fold
same,"Fold resistance, CCRF-CEM/VBL vs parent CCRF-CEM (fold increase in IC50)",[1]; Table 3A,[1.98-fold
C=C[C@H](C#CC#CC[C@H]1OC(C)(C)O[C@@H]1CCCCCCC)OC(=O)/C=C/c1ccccc1 [Compound (E)],IC50,"[2]; Table 3B, read-out: IC50 (in μM) for human leukemic lymphoblastic leukemia cells CCRF-CEM",6.51 µM
C=C[C@@H](O)C#CC#CC[C@H]1OC(C)(C)O[C@@H]1CCCCCCC [Compound A],IC50,"CCRF-CEM/Taxol cells; Homo sapiens, CCRF-CEM, compound stored in DMSO at below approximately −20° C. for 4 years and 4 months",17.2 µM
same,IC50,[1]; [5],2.41 ± 0.05 µM
same,IC50,"[1]; Table 3A, compound stored in DMSO at below approximately −20° C. for 4 years and 4 months",6.82 µM
same,"Fold resistance, CCRF-CEM/VBL vs parent CCRF-CEM (fold increase in IC50)",[1]; Table 3A,[1.4-fold
same,Tumor growth at elevated dosage levels,[3],enhanced tumor-growth suppression
same,Reduction in tumor mass,[3]; including elevated dosages,did not lead to a reduction in the tumor mass
same,Tumor growth,"[3]; levels as low as 10 mg/kg, FIG. 2",inhibiting tumor growth
same,IC50,[2]; [6],1.98 ± 0.2 µM
same,IC50,"[2]; Table 3A, compound stored in DMSO at below approximately −20° C. for 4 years and 4 months, read-out: IC50 (μM) CCRF-CEM",6.15 µM
C=CC(=O)C#CC#CC[C@@H](O)[C@H](O)CCCCCCC [Compound B],"Fold resistance (IC50 CCRF-CEM/VBL vs CCRF-CEM), in parentheses",[1]; Table 3,1.40 x
C=CC(=O)C#CC#CC[C@H]1OC(C)(C)O[C@@H]1CCCCCCC [Compound C],IC50,[1]; [5],3.84 ± 0.08 µM
same,IC50,[2]; [6],3.23 ± 0.78 µM
"CC[C@]1(O)C[C@@H]2CN(CCc3c([nH]c4ccccc34)[C@@](C(=O)OC)(c3cc4c(cc3OC)N(C)[C@H]3[C@@](O)(C(=O)OC)[C@H](OC(C)=O)[C@]5(CC)C=CCN6CC[C@]43[C@@H]65)C2)C1 [Vinblastine, reference compound]",IC50,[1]; [5],0.8 µM
same,IC50,[2]; [6],0.002 µM
C=C[C@@H](O)C#CC#CC[C@@H](O)[C@H](O)CCCCCCC [panaxytriol],"Fold resistance (IC50 CCRF-CEM/VBL vs CCRF-CEM), in parentheses",[1]; Table 3,1.20 x
same,Reduction in tumor mass,"[3]; 30 mg/kg, FIG. 1",no significant reduction in tumor mass
same,Tumor growth,"[3]; 30 mg/kg, FIG. 1",some suppression of tumor growth
same,Tumor growth at elevated dosage levels,[3],improved inhibitory effects
same,Body weight,[4],no body weight decrease
